Read-outs that look alike come from different tables or passages of the source.
Legend:
SARS-Cov-2 3CLpro = target: T1, SARS-Cov-2 3CLpro (Severe acute respiratory syndrome coronavirus 2, UniProt P0DTD1); assay: SARS-Cov-2 3CLpro and HRV3C duplex assay (SAMDI-MS): 3CLpro; type: biochemical; details: 3CLpro, duplex assay, 30 mins preincubation; class symbols; read-out: SARS-Cov-2 IC50
T1 construct: SARS-Cov-2 3CLpro and HRV3C Duplex Assay

HRV3C = target: T2, HRV3C (Human rhinovirus 14, UniProt P03303); assay: biochemical; details: read-out: HRV IC50
T2 construct: SARS-Cov-2 3CLpro and HRV3C Duplex Assay

[1] = system: human beta-coronavirus OC43; assay: OC43 coronavirus assay in HeLa cells (cytopathic effect, cell-titer-glo); type: cell-based
[2] = Cytotoxicity plates without OC43 virus in HeLa cells; type: cell-based; details: human, HeLa cells (uninfected)
Experimental: The human beta-coronavirus OC43 was purchased from ATCC (Manassas, VA) and propagated using HCT-8 human colorectal epithelial cells (ATCC). HeLa human cervical epithelial cells (ATCC) were used as susceptible host cell lines and were cultured using EMEM media, supplemented with 10% fetal bovine serum (FBS), 1% (v/v) penicillin/streptomycin (P/S), 1% (v/v) HEPES and 1% (v/v) cellgro Glutagro™ supplement (all Corning, Manassas, VA) at 37° C. For the OC43 antiviral assay, 1.5×10^4 HeLa cells per well were plated in 100 μL complete media in white 96-well plates with clear bottoms at 37° C. for up to 24 h to facilitate attachment and allow cells to recover from seeding stresses. Next day, the cell culture medium was removed. Serially diluted compounds in 100 μL assay media (EMEM, 2% FBS, 1% P/S, 1% cellgro Glutagro™ supplement, 1% HEPES) were added to the cells and incubated for 4H at 37° C. in a humidified 5% CO2 incubator. 100 μL of OC43 virus stock was diluted to a concentration known to produce optimal cytopathic effect, inducing 80-90% reduction in cell viability. 96-well plates were incubated for 6 (HeLa) days at 33° C.; each plate contains uninfected control wells as well as virus-infected wells that were not treated with compound. Cytotoxicity plates without the addition of OC43 virus were carried out in parallel. At the end of the incubation period, 100 μL cell culture supernatant was replaced with 100 μL cell-titer-glo reagent (Promega, Madison, WI) and incubated for at least 10 min at rt prior to measuring luminescence. Luminescence was measured on a Perkin Elmer (Waltham, MA) Envision plate reader. Antiviral % inhibition was calculated as follows: [(Compound treated cells infected sample)−(no compound infected control)]/[(Uninfected control)−(no compound infected control)]*100; Using GraphPad (San Diego, CA) prism software version 8.3.1, the antiviral dose-response plot was generated as a sigmoidal fit, log(inhibitor) vs response-variable slope (four parameters) model and the EC50 was calculated which is the predicted compound concentration corresponding to a 50% inhibition of the viral cytopathic effect.

[3] = system: SARS-CoV-2-GHB-03021/2020; assay: microbe, parasite or virus in culture; type: cell-based; details: Severe acute respiratory syndrome coronavirus 2, Vero C1008, 96 h; read-out: VeroE6 + CP (EC50)
human cathepsin L = target: T3, human cathepsin L (Homo sapiens, UniProt P07711); assay: Cathepsin L assay (Z-FR-AMC fluorescence); type: biochemical; details: 10 pM human cathepsin L, 30 mins preincubation; class symbols
T3 construct: purchased R&D Systems
Experimental: For the cathepsin L assay, 10 pM of human cathepsin L (R&D Systems; Minneapolis, MN) was preincubated for 30 mins with test compounds. Reactions were initiated by the addition of a peptide substrate Z-FR-AMC (final concentration 2 μM, Anaspec; Fremont, CA). Fluorescence was measured at 2-minute intervals for 30 mins using a 355/460 excitation/emission filter module on an Envision plate reader (Perkin Elmer; Waltham, MA). The IC50 values were calculated for each assay by fitting the curves using a four-parameter equation in GraphPad Prism.

[4] = HRV3C, duplex assay, 30 mins preincubation, class symbols
[5] = Betacoronavirus 1, 144 h, OC43 in HeLa cells, 6 days at 33° C., class symbols, read-out: EC50

T3 sequence (P07711 114-333): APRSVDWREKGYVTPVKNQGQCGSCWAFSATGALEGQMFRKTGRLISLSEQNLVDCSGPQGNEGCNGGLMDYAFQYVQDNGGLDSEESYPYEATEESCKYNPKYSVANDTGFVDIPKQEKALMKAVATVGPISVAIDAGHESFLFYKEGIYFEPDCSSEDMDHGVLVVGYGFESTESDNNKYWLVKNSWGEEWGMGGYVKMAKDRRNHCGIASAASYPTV
T2 sequence (P03303 1538-1719): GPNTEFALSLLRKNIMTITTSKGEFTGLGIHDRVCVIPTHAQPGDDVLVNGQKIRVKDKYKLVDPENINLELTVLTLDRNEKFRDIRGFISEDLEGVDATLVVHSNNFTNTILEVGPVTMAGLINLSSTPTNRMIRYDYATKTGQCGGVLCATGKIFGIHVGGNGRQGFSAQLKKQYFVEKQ

Row | SMILES | IC50 (SARS-Cov-2 3CLpro) [µM] | IC50 (HRV3C; [4]) [µM] | EC50 [1, 5] [µM] | CC50 at 6 days ([2]; class symbols) [µM] | EC50 [3] [µM] | IC50 (human cathepsin L) [µM] | IC50 (HRV3C) [µM] | CC50 at 6 days ([2]; numeric bound, unit inferred) [µM] | EC50 ([1]; Betacoronavirus 1, OC43, HeLa) [µM]
1 | O=C(NC1CC1)C(=O)C(C[C@@H]1CCNC1=O)NC(=O)[C@@H]1[C@@H]2C[C@@H](CC23CC3)N1C(=O)c1nc(-c2ccccc2)cs1 (stereo partly drawn) [Compound 26, N-cyclopropyl-2-oxo-4-[(3S)-2-oxopyrrolidin-3-yl]-3-[(1R,4S,6S)-5-(4-phenyl-1,3-thiazole-2-carbonyl)-5-azaspiro[bicyclo[2.2.1]heptane-2,1′-cyclopropan]-6-ylformamido]butanamide] | 0.2 to 2 | 0.2 to 2 | 1 to 10 | ≥ 100 | 1 to 10 | ≥ 10 |  |  | 
2 | CC(C)n1c(C(=O)N2CCC3(CC3)C[C@H]2C(=O)N[C@@H](C[C@@H]2CCNC2=O)C(=O)C(=O)NC2CC2)cc2ccccc21 [Compound 27] | < 0.02 | 0.2 to 2 | 0.1 to 1 | ≥ 100 | < 1 | ≥ 10 |  |  | 
3 | O=C(NC1CC1)C(=O)[C@H](C[C@@H]1CCNC1=O)NC(=O)[C@@H]1CC2(CCN1C(=O)c1csc3ccccc13)CC2 [Compound 28] | < 0.02 | 0.02 to 0.2 | 1 to 10 | ≥ 100 | < 1 | ≥ 10 |  |  | 
4 | COc1ccc2cc(C(=O)N3CCC4(CC4)C[C@H]3C(=O)N[C@@H](C[C@@H]3CCNC3=O)C(=O)C(=O)NC3CC3)n(C)c2c1 [Compound 29] | < 0.02 | 2 to 20 | 0.1 to 1 | ≥ 100 | < 1 | ≥ 10 |  |  | 
5 | Cc1ccc2cc(C(=O)N3CCC4(CC4)C[C@H]3C(=O)N[C@@H](C[C@@H]3CCNC3=O)C(=O)C(=O)NC3CC3)n(C)c2c1 [Compound 30] | 0.02 to 0.2 |  | 0.1 to 1 | ≥ 100 | < 1 | ≥ 10 | > 10 |  | 
6 | Cn1c(C(=O)N2CCC3(CC3)C[C@H]2C(=O)N[C@@H](C[C@@H]2CCNC2=O)C(=O)C(=O)NC2CC2)cc2ccc(Cl)cc21 [Compound 31] | < 0.02 | 2 to 20 | 0.1 to 1 | ≥ 100 | < 1 | ≥ 10 |  |  | 
7 | O=C(NC1CC1)C(=O)[C@H](C[C@@H]1CCNC1=O)NC(=O)[C@@H]1CC2(CCN1C(=O)[C@@H]1CCCc3ccccc31)CC2 [Compound 32] | 0.02 to 0.2 | 0.2 to 2 | 1 to 10 | ≥ 100 | < 1 | ≥ 10 |  |  | 
8 | O=C(NC1CC1)C(=O)[C@H](C[C@@H]1CCNC1=O)NC(=O)[C@@H]1CC2(CCN1C(=O)[C@H]1CCCc3ccccc31)CC2 [Compound 33] | 0.02 to 0.2 | 0.2 to 2 | 1 to 10 | ≥ 100 | < 1 | ≥ 10 |  |  | 
9 | CC(C)(C)[C@H](NC(=O)C(F)(F)F)C(=O)N1CCC2(CC2)C[C@H]1C(=O)N[C@H](C#N)C[C@@H]1CCNC1=O [Compound 35, (S)—N—((S)-1-cyano-2-((S)-2-oxopyrrolidin-3-yl)ethyl)-6-((S)-3,3-dimethyl-2-(2,2,2-trifluoroacetamido)butanoyl)-6-azaspiro[2.5]octane-5-carboxamide] | < 0.02 |  | 0.1 to 1 | ≥ 100 | < 1 | ≥ 10 | > 10 |  | 
10 | COc1cccc(-c2csc(C(=O)N3CCC4(CC4)C[C@H]3C(=O)N[C@@H](C[C@@H]3CCNC3=O)C(=O)C(=O)NC3CC3)n2)c1 [Compound 36] | 0.2 to 2 | 2 to 20 | 0.1 to 1 |  | 1 to 10 | ≥ 10 |  | > 100 | 
11 | COc1ccc(-c2csc(C(=O)N3CCC4(CC4)C[C@H]3C(=O)N[C@@H](C[C@@H]3CCNC3=O)C(=O)C(=O)NC3CC3)n2)cc1 [Compound 37] | 0.2 to 2 | 0.2 to 2 | 0.1 to 1 |  | 1 to 10 | ≥ 10 |  | > 100 | 
12 | Cc1sc(C(=O)N2CCC3(CC3)C[C@H]2C(=O)N[C@@H](C[C@@H]2CCNC2=O)C(=O)C(=O)NC2CC2)nc1-c1ccccc1 [Compound 38] | 0.2 to 2 | 2 to 20 | 0.1 to 1 |  | 1 to 10 | ≥ 10 |  | > 100 | 
13 | CC(C)(C)c1csc(C(=O)N2CCC3(CC3)C[C@H]2C(=O)N[C@@H](C[C@@H]2CCNC2=O)C(=O)C(=O)NC2CC2)n1 [Compound 39] | 0.2 to 2 | 2 to 20 | 0.1 to 1 |  | 1 to 10 | 1 to 10 |  | > 100 | 
14 | O=C(NC1CC1)C(=O)[C@H](C[C@@H]1CCNC1=O)NC(=O)[C@@H]1CC2(CCN1C(=O)c1csc(-c3ccccc3)n1)CC2 [Compound 40] | 0.2 to 2 | 0.2 to 2 | 0.1 to 1 |  | 1 to 10 | ≥ 10 |  | > 100 | 
15 | O=C(NC1CC1)C(=O)[C@H](C[C@@H]1CCNC1=O)NC(=O)[C@@H]1CC2(CCN1C(=O)c1cccc(-c3ccccc3)n1)CC2 [Compound 41] | 0.2 to 2 | 0.2 to 2 | 0.1 to 1 |  | 1 to 10 | ≥ 10 |  | > 100 | 
16 | COc1ccccc1-c1csc(C(=O)N2CCC3(CC3)C[C@H]2C(=O)N[C@@H](C[C@@H]2CCNC2=O)C(=O)C(=O)NC2CC2)n1 [Compound 42] | 0.2 to 2 |  | 0.1 to 1 |  | 1 to 10 | ≥ 10 | > 10 | > 100 | 
17 | O=C(NC1CC1)C(=O)[C@H](C[C@@H]1CCNC1=O)NC(=O)[C@@H]1CC2(CCN1C(=O)c1nc(-c3ccccc3Cl)cs1)CC2 [Compound 43] | 0.2 to 2 |  | 0.1 to 1 |  | 1 to 10 | ≥ 10 | > 10 | > 100 | 
18 | O=C(NC1CC1)C(=O)[C@H](C[C@@H]1CCNC1=O)NC(=O)[C@@H]1CC2(CCN1C(=O)c1nc(-c3ccc(Cl)cc3)cs1)CC2 [Compound 44] | 0.2 to 2 |  | 0.1 to 1 | 10 to 100 | 1 to 10 | ≥ 10 | > 10 |  | 
19 | O=C(NC1CC1)C(=O)[C@H](C[C@@H]1CCNC1=O)NC(=O)[C@@H]1CC2(CCN1C(=O)c1csc(-c3cccc(Cl)c3)n1)CC2 [Compound 45] | 0.02 to 0.2 | 2 to 20 | 0.1 to 1 | 10 to 100 | < 1 | ≥ 10 |  |  | 
20 | O=C(NC1CC1)C(=O)[C@H](C[C@@H]1CCNC1=O)NC(=O)[C@@H]1CC2(CCN1C(=O)c1nc(C3CCCCC3)cs1)CC2 [Compound 46] | 0.2 to 2 |  | 0.1 to 1 |  | 1 to 10 | 1 to 10 | > 10 | > 100 | 
21 | O=C(NC1CC1)C(=O)[C@H](C[C@@H]1CCNC1=O)NC(=O)[C@@H]1CC2(CCN1C(=O)[C@@H]1C[C@@H]1c1ccccc1)CC2 [Compound 47] | 2 to 20 | 0.2 to 2 |  |  | > 50 | ≥ 10 |  | > 100 | > 10
22 | O=C(NC1CC1)C(=O)[C@H](C[C@@H]1CCNC1=O)NC(=O)[C@@H]1CC2(CCN1C(=O)[C@@H]1C[C@H]1c1ccccc1)CC2 [Compound 48] | 0.02 to 0.2 | 0.2 to 2 | 0.1 to 1 |  | 1 to 10 | 1 to 10 |  | > 100 | 

Source: US12065428B2, “Anti-viral compounds” (Aligos Therapeutics, Inc., priority 2021, dated 2024)
